# Like-named read-outs stand apart in the source and are kept apart here.
# What was measured:
# [1] = Lipid nanoparticle size, PDI and encapsulation; assay type: physicochemical; conditions: Table 3
# [2] = Lipid nanoparticle size, PDI and encapsulation; assay type: physicochemical; conditions: Table 3; for Size (nm): lipid nanoparticle; for EE %: lipid nanoparticle encapsulation
# Protocol: In the context of nucleic acids, full encapsulation may be determined by performing a membrane-impermeable fluorescent dye exclusion assay, which uses a dye that has enhanced fluorescence when associated with nucleic acid. Encapsulation is determined by adding the dye to a lipid formulation, measuring the resulting fluorescence, and comparing it to the fluorescence observed upon addition of a small amount of nonionic detergent. Detergent-mediated disruption of the lipid layer releases the encapsulated nucleic acid, allowing it to interact with the membrane-impermeable dye. Nucleic acid encapsulation may be calculated as E=(I0−I)/I0, where I and I0 refer to the fluorescence intensities before and after the addition of detergent.
# [3] = In vivo biodegradability assay (lipid in liver); conditions: for Invivo lipid degradability ng/g of Liver tissue @ 0.3 mg/kg dose: Table 3; for In vivo degradability (ng/tissue) at 48h 0.03 mpk / In vivo degradability (ng/tissue) at 48h 0.1 mpk: mouse liver
# [4] = Measured pKa in the indicated formulation
# Protocol: Measured pKa values were determined based on the pH measured in the indicated formulation (i.e., EPO or FVII formulation).
# hEPO = hEPO mRNA expression evaluation (hEPO-LNPs); assay type: in vivo, Balb/c mice; conditions: for EPO expression in ng/mL @ 0.3 mg/kg: Table 3; for EPO exprssn (ng/mL) 0.1 mpk: 0.1 mpk i.v.
# factor VII = assay: Factor VII knock down evaluation (LNP with FVII siRNA); assay type: in vivo, Balb/C mice; conditions: for FVII KD % 0.01 mpk: 0.01 mpk i.v.; for FVII KD % 0.01 mpk / FVII KD % 0.03 mpk: plasma FVII after 48 h vs saline control; for FVII KD % 0.03 mpk: 0.03 mpk i.v.
# In short: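 Female Balb/C mice, 7–8 weeks old, received FVII siRNA lipid nanoparticles intravenously at 0.03 or 0.01 mg/kg. Plasma was collected 48 h later and FVII protein measured by chromogenic assay at 405 nm against a control plasma calibration curve. Levels are relative to saline-treated controls.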
# Mouse plasma stability = assay type: in vitro ADME, CD-1 mouse; conditions: 1 uM lipid
# In short: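 Lipid at 1 μM starting concentration incubated in stirred CD-1 mouse plasma (sodium heparin) at 37° C.; samples at 0–120 min quenched with acetonitrile/methanol plus internal standard. LC-MS peak area relative to T=0 gave % remaining; T1/2 from first-order decay.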
Compound,PDI [1],Size (nm) [2],EE % [2],Invivo lipid degradability ng/g of Liver tissue @ 0.3 mg/kg dose [3],pKa [4],EPO expression in ng/mL @ 0.3 mg/kg (hEPO),also measured
CN(C)CCCC(=O)OC(CCCC(=O)OC(COC(=O)CCCC1CCCCC1)COC(=O)CCCC1CCCCC1)CCCC(=O)OC(COC(=O)CCCC1CCCCC1)COC(=O)CCCC1CCCCC1,0.081,70.09 nm,93.4%,BLOQ,6.49,19337.84 ng/mL,
"CN(C)CCCC(=O)OC(CCCC(=O)OCC(COC(=O)CCC1CCCCC1)COC(=O)CCC1CCCCC1)CCCC(=O)OCC(COC(=O)CCC1CCCCC1)COC(=O)CCC1CCCCC1 [Lipid 61, bis(3-((3-cyclohexylpropanoyl)oxy)-2-(((3-cyclohexylpropanoyl)oxy)methyl)propyl)5-((4-(dimethylamino)butanoyl)oxy)nonanedioate]",0.064,70.54 nm,95.3%,BLOQ,6.84,4238.52 ng/mL,
"CC1CCC(CCC(=O)OCC(C)(COC(=O)CCC2CCC(C)CC2)COC(=O)CCN(CCC(=O)OCC(C)(COC(=O)CCC2CCC(C)CC2)COC(=O)CCC2CCC(C)CC2)C(=O)N(C)CCCN(C)C)CC1 (centres unmarked) [Lipid 48, (((3,3′-((((3-dimethylamino)propyl)methylcarbamoyl)azanediyl)bis(propanoyl))bis(oxy))bis(methylene))bis(2-methylpropane-2,1,3-triyl)tetrakis(3-(4-methylcyclohexyl)propanoate)]",0.065,103.2 nm,96.2%,,7.18,,
"CC1CCC(CCC(=O)OCC(C)(COC(=O)CCC2CCC(C)CC2)COC(=O)CCN(CCC(=O)OCC(C)(COC(=O)CCC2CCC(C)CC2)COC(=O)CCC2CCC(C)CC2)C(=O)CCCCN(C)C)CC1 (centres unmarked) [Lipid 49, (((3,3′-((5-(dimethylamino)pentanoyl)azanediyl)bis (propanoyl))bis(oxy))bis(methylene))bis(2-methylpropane-2,1,3-triyl)tetrakis(3-(4-methylcyclohexyl)propanoate)]",0.028,97.23 nm,98.9%,,7.5,,"FVII KD % @ 0.03 mg/kg (factor VII; Table 3, 0.03 mg/kg): 3.57%"
"CC1CCC(CCC(=O)OCC(C)(COC(=O)CCC2CCC(C)CC2)COC(=O)CCN(CCC(=O)OCC(C)(COC(=O)CCC2CCC(C)CC2)COC(=O)CCC2CCC(C)CC2)C(=O)NCCCN(C)C)CC1 (centres unmarked) [Lipid 47, (((3,3′-((((3-dimethylamino)propyl)carbamoyl)azanediyl)bis(propanoyl))bis(oxy))bis(methylene))bis(2-methylpropane-2,1,3-triyl)tetrakis(3-(4-methylcyclohexyl)propanoate)]",0.089,98.26 nm,98.9%,,,,
"CN(C)CCCC(=O)OC(CCCC(=O)OCC(C)(COC(=O)CCC1CCCCC1)COC(=O)CCC1CCCCC1)CCCC(=O)OCC(C)(COC(=O)CCC1CCCCC1)COC(=O)CCC1CCCCC1 [Lipid 62, bis(3-((3-cyclohexylpropanoyl)oxy)-2-(((3-cyclohexylpropanoyl)oxy)methyl)-2-methylpropyl) 5-((4-(dimethylamino)butanoyl)oxy)nonanedioate]",0.056,72.43 nm,95.3%,6880 ng/g,6.64,2930.66 ng/mL,
"CCCCC(C)(C)CC(=O)OCC(C)(COC(=O)CCC(CCC(=O)OCC(C)(COC(=O)CC(C)(C)CCCC)COC(=O)CC(C)(C)CCCC)OC(=O)CCCN(C)C)COC(=O)CC(C)(C)CCCC [Lipid 60, bis(3-((3,3-dimethylheptanol)oxy)-2-(((3,3-dimethylheptanol)oxy)methyl)-2-methylpropyl) 4-((4-(dimethylamino)butanoyl)oxy)heptanedioate]",0.087,65.95 nm,93.9%,53300 ng/g,6.28,1631.03 ng/mL,
"CCC1CCC(C(=O)OCC(COC(=O)C2CCC(CC)CC2)OC(=O)CCCN(CCCC(=O)OC(COC(=O)C2CCC(CC)CC2)COC(=O)C2CCC(CC)CC2)C(=O)SCCCN(C)C)CC1 (centres unmarked) [LIPID 16, ((4,4′-((((3-(Dimethylamino)propyl)thio)carbonyl)azanediyl)bis(butanoyl))bis(oxy))bis(propane-2,1,3-triyl)tetrakis(4-ethylcyclohexane-1-carboxylate)]",,,,,,,"In vivo degradability (ng/tissue) at 48h 0.03 mpk ([3]; Table 1): <340 ng/tissue; In vivo degradability (ng/tissue) at 48h 0.1 mpk ([3]; Table 1): <340 ng/tissue; In vivo degradability (ng/tissue) at 48h 0.03 mpk ([3]; Table 2): <340 ng/tissue; In vivo degradability (ng/tissue) at 48h 0.1 mpk ([3]; Table 2): <340 ng/tissue; FVII KD % 0.01 mpk (factor VII; Table 1): 58%; FVII KD % 0.03 mpk (factor VII; Table 1): 88%; FVII KD % 0.01 mpk (factor VII; Table 2): 58%; FVII KD % 0.03 mpk (factor VII; Table 2): 88%; Percent remaining in mouse plasma after 2 h (Mouse plasma stability; Table 1, mouse plasma 37 C): 40%; Percent remaining in mouse plasma after 2 h (Mouse plasma stability; Table 2, mouse plasma 37 C): 40%; pKa ([4]; EPO formulation): 6.5; pKa ([4]; FVII formulation): 6.45; pKa: EPO ([4]; Table 1, measured in EPO formulation): (6.50/; pKa: FVII ([4]; Table 1, measured in FVII formulation): 6.45); EPO exprssn (ng/mL) 0.03 mpk (hEPO; Table 1, 0.03 mpk i.v., serum hEPO after 6 hr): 2088 ng/mL; EPO exprssn (ng/mL) 0.1 mpk (hEPO; Table 1, serum hEPO after 6 hr): 6358 ng/mL; EPO exprssn (ng/mL) 0.1 mpk (hEPO; Table 2, serum hEPO after 6 hr): 2088 ng/mL"

# Now from value to compound, other results behind:
PDI [1],Size (nm) [2],EE % [2],Invivo lipid degradability ng/g of Liver tissue @ 0.3 mg/kg dose [3],pKa [4],Compound,EPO expression in ng/mL @ 0.3 mg/kg (hEPO),also measured
0.134,113.1 nm,85.7%,,,"CN(C)CCCSC(=O)N(CCCC(=O)OC(COC(=O)CCc1ccc2ccccc2c1)COC(=O)CCc1ccc2ccccc2c1)CCCC(=O)OC(COC(=O)CCc1ccc2ccccc2c1)COC(=O)CCc1ccc2ccccc2c1 [Lipid 44, ((4,4′-((((3-(dimethylamino)propyl)thio)carbonyl)azanediyl)bis(butanoyl))bis(oxy))bis(propane-2,1,3-triyl)tetrakis(3-(naphthalen-2-yl)propanoate)]",,
0.065,78.98 nm,94.3%,BLOQ,6.52,"CN(C)CCCC(=O)OC(CCCC(=O)OC(COC(=O)CCC1CCCCC1)COC(=O)CCC1CCCCC1)CCCC(=O)OC(COC(=O)CCC1CCCCC1)COC(=O)CCC1CCCCC1 [Lipid 57, bis(1,3-bis((3-cyclohexylpropanoyl)oxy)propan-2-yl) 5-((4-(dimethylamino)butanoyl)oxy)nonanedioate]",21737.69 ng/mL,
0.068,74.77 nm,92.1%,BLOQ,6.37,"CN(C)CCCC(=O)OC(CCCCCC(=O)OC(COC(=O)CCC1CCCCC1)COC(=O)CCC1CCCCC1)CCCCCC(=O)OC(COC(=O)CCC1CCCCC1)COC(=O)CCC1CCCCC1 [Lipid 59, bis(1,3-bis((3-cyclohexylpropanoyl)oxy)propan-2-yl) 7-((4-(dimethylamino)butanoyl)oxy)tridecanedioate]",14723.72 ng/mL,
0.086,100.4 nm,88.2%,,,"CN(C)CCCSC(=O)N(CCCC(=O)OC(COC(=O)CCc1ccc(-c2ccccc2)cc1)COC(=O)CCc1ccc(-c2ccccc2)cc1)CCCC(=O)OC(COC(=O)CCc1ccc(-c2ccccc2)cc1)COC(=O)CCc1ccc(-c2ccccc2)cc1 [Lipid 42, ((4,4′-((((3-(dimethylamino)propyl)thio)carbonyl)azanediyl)bis(butanoyl))bis(oxy))bis(propane-2,1,3-triyl)tetrakis(3-([1,1′-biphenyl]-4-yl)propanoate)]",,

# Source: US20240391870A1 (Arcturus Therapeutics, Inc., priority 2023, published 2024)
